Experimental data from article PMC8358040, “The enzymatic activity of inositol hexakisphosphate kinase controls circulating phosphate in mammals” (Nature Communications, 2021).
Several values for one entry are separate records, joined by “and”; a condition that tells them apart may be missing. Equal entries are not always repeated. One block for each compound: values may come before it.

Legend:
human IP6K3 = biological target: T1, human IP6K3 (Homo sapiens, UniProt Q96PC2); assay: ADP-Glo kinase assay for IP6K activity; settings: read-out: IC50 IP6K3; recombinant human IP6K3 […], ATP 15 μM, InsP6 50 μM, 2 h; mean ± S.D.
T1 sequence (Q96PC2 1-410): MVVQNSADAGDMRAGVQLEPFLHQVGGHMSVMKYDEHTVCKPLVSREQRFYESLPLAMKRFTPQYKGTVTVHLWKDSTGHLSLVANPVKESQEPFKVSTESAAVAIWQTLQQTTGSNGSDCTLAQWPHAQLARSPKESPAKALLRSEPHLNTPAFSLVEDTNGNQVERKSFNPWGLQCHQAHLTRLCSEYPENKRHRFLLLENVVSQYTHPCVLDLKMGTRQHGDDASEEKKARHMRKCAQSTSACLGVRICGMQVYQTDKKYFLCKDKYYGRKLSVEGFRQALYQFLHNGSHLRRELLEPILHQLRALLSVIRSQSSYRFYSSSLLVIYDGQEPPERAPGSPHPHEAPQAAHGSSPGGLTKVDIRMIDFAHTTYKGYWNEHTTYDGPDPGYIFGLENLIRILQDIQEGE

human IP6K1 = biological target: T2, human IP6K1 (Homo sapiens, UniProt Q92551); assay: ADP-Glo kinase assay for IP6K activity; assay type: biochemical; settings: recombinant human IP6K1 15 nM, ATP 15 μM, InsP6 50 μM, 2 h; mean ± S.D.
T2 construct: made in house; host or cells: Sf9 insect cells (baculovirus)

human IP6K2 = biological target: T3, human IP6K2 (Homo sapiens, UniProt Q9UHH9); assay: ADP-Glo kinase assay for IP6K activity; settings: read-out: IC50 IP6K2; recombinant human IP6K2 12 nM, ATP 15 μM, InsP6 50 μM, 2 h; mean ± S.D.
T3 sequence (Q9UHH9 1-426): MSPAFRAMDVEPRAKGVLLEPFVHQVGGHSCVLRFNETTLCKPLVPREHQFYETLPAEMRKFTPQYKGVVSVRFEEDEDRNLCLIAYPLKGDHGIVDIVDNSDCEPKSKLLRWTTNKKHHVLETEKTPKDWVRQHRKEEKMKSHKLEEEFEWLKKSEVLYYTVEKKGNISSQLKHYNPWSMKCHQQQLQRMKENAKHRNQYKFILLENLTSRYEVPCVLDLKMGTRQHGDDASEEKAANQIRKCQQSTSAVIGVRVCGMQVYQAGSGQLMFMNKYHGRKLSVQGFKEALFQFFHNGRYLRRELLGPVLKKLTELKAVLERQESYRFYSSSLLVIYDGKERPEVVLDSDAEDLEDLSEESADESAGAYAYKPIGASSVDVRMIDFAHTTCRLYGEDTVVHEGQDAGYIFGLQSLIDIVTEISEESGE

[1] = Plasma concentration of SC-919, single-dose study in normal monkeys; assay type: in vivo, cynomolgus monkey; settings: 0.3 mg/kg oral, time 1, individual animals (Fig3c)
Description: The experiments were performed at Hamamatsu Pharma Research, Inc. (Hamamatsu, Shizuoka, Japan), which is accredited by the American Association for Accreditation of Laboratory Animal Care. Male cynomolgus monkeys were housed in a room with controlled temperature, humidity, and lighting (12 h light/dark cycle). All monkeys were fed a regular diet (100 g/day, PS-A, Oriental Yeast Co., Ltd.) and had free access to tap water. The experiments were performed when the animals were 3–4 years old. The monkeys were randomized into different groups based on plasma phosphate, body weight (2.6–4.7 kg), and age (n = 6). Corn oil (FUJIFILM Wako) was used as a vehicle. […] Blood was collected from the cephalic vein, saphenous vein, or the femoral vein using a disposable syringe and needle at the indicated timepoints for the measurement of phosphate levels in the plasma. The concentration of the compound in the plasma was measured at the same timepoints (n = 6).

[2] = Plasma concentration of SC-919 in adenine-treated rats (sub-chronic dose study)
[3] = Plasma concentration of SC-919, single-dose study in normal rats; assay type: in vivo, rat
Description: The experiment was performed with 8-week-old male SD rats (CLEA Japan, Inc.). […] The concentration of the compound in the plasma was measured at the same timepoints (n = 3).

[4] = Plasma concentration of SC-919 in bilaterally nephrectomized rats; assay type: in vivo, rat; settings: bilaterally nephrectomised rats, 0.3 mg/kg oral, 5 h, individual animals (Fig4e)
Description: The experiment was performed with 9-week-old male SD rats (CLEA Japan, Inc.). For bilateral nephrectomy, rats were fasted for 16 h and were subcutaneously injected with buprenorphine (0.05 mg/kg, Otsuka). Thirty minutes later, the rats were anesthetized using isoflurane (3% v/v) and kept on thermal pads at 37 °C with isoflurane (2% v/v). The left and right abdomen and the neck were shaved with a clipper. The surgical site was disinfected with a chlorhexidine-containing antiseptic solution, and the aesthetic state was confirmed by the disappearance of the pain reflex. The skin was incised to expose the kidney, and the renal artery and vein were ligated, which was followed by the isolation of the kidney. […] A sham operation group (n = 6), without nephrectomy, was prepared following the same procedure. After completion of the operation, meloxicam (1 mg/kg) was subcutaneously administered once a day during the study. One day after the operation, anaesthesia was introduced using the procedure described above, and blood was collected from the jugular vein.

[5] = system: phosphate excretion in urine; assay: Cumulative 32P activity in urine of rats administered NaH2 32PO4; assay type: in vivo, rat; settings: lanthanum carbonate 1000 mg/kg 7th dose
Description: (§1) The experiment was performed using 8-week-old SD rats (CLEA Japan, Inc.). Male rats were randomly sorted into different groups based on their body weight (n = 5). […] After a 1 h treatment, NaH2^32PO4 solution (11 μCi/2 mL/rat) was administered orally. Following NaH2^32PO4 administration, rats were placed in metabolic cages, and faeces and urine were collected up to 72 h later. The compound was administered once a day during the 72 h experiment. […] The radioactivity (%) in the faecal and urine samples was calculated by setting the radioactivity of the administered NaH2^32PO4 to 100 %.

[6] = system: phosphate excretion in faeces; assay: Cumulative 32P activity in faeces of rats administered NaH2 32PO4; assay type: in vivo, rat; settings: for Cumulative 32P activity in the faeces: lanthanum carbonate 1000 mg/kg 7th dose
Description: as §1

T2 sequence (Q92551 whole entry): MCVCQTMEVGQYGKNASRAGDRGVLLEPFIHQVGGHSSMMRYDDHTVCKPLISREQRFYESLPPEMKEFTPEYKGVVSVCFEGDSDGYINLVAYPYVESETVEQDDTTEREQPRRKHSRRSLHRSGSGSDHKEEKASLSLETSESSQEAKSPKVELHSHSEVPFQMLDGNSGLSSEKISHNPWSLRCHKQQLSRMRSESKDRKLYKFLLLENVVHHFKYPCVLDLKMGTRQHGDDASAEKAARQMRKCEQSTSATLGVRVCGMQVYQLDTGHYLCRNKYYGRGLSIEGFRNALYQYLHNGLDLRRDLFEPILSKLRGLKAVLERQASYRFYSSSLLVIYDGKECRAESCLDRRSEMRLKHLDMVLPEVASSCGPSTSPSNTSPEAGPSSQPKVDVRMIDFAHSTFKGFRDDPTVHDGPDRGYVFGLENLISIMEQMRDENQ

SMILES: O=[N+]([O-])c1ccc(CNc2nc(NCc3cccc(C(F)(F)F)c3)nc3nc[nH]c23)cc1 [TNP, N2-(m-(trifluoromethyl)benzyl) N6-(p-nitrobenzyl)purine]
- IC50 (human IP6K3): 260 ± 21 nM
- IC50 (human IP6K1): 270 ± 100 nM
- IC50 (human IP6K2): 850 ± 330 nM

- Concentration of SC-919 (plasma) ([2]; 1 mg/kg oral, initial dose, time 2, individual animals (Fig4a), 1 mg/kg): 928.621 and 807.664 and 876.622
- Concentration of SC-919 (plasma) ([2]; 1 mg/kg, initial dose, time 6 (Fig4a)): 850.061 and 949.996 and 720.403
- Concentration of SC-919 (plasma) ([2]; 1 mg/kg, seventh dose, time 2 (Fig4c)): 2909.926 and 3195.472 and 1783.864
- Concentration of SC-919 (plasma) ([2]; 1 mg/kg, seventh dose, time 6 (Fig4c)): 2957.483 and 3182.718 and 1810.036
- Concentration of SC-919 (plasma) ([2]; 1 mg/kg, seventh dose, time 24 (Fig4c)): 2238.331 and 2202.619 and 1356.448
- Concentration of SC-919 (plasma) ([2]; 10 mg/kg, initial dose, time 2 (Fig4a)): 5701.725 and 5986.890 and 6856.247
- Concentration of SC-919 (plasma) ([2]; 10 mg/kg, initial dose, time 6 (Fig4a)): 4444.794 and 6665.965 and 6592.043
- Concentration of SC-919 (plasma) ([2]; 10 mg/kg, initial dose, time 24 (Fig4a)): 2595.707 and 5143.151 and 4143.702
- Concentration of SC-919 (plasma) ([2]; 10 mg/kg, seventh dose, time 2 (Fig4c)): 8573.125 and 12574.890 and 8591.283
- Concentration of SC-919 (plasma) ([2]; 10 mg/kg, seventh dose, time 6 (Fig4c)): 7820.236 and 14817.670 and 9035.189
- Free SC-919 levels ([3]; animal studies using rats and monkeys, reviewer response): below 0.05 μM
- Plasma concentration of SC-919 ([3]; normal rats, 1 mg/kg oral, time 1, individual animals (Fig3a), 1 mg/kg): 1942.907 and 1856.710 and 1476.530
- Plasma concentration of SC-919 ([3]; normal rats, 1 mg/kg oral, time 2 (Fig3a), 1 mg/kg): 2011.947 and 2121.932 and 1778.126
- Plasma concentration of SC-919 ([3]; normal rats, 1 mg/kg oral, time 4 (Fig3a), 1 mg/kg): 2195.083 and 2444.564 and 1949.961
- Plasma concentration of SC-919 ([3]; normal rats, 1 mg/kg oral, time 8 (Fig3a), 1 mg/kg): 1948.434 and 2469.995 and 1783.145
- Plasma concentration of SC-919 ([3]; normal rats, 3 mg/kg oral, time 1 (Fig3a), 3 mg/kg): 4153.987 and 3662.163 and 4004.199
- Plasma concentration of SC-919 ([3]; normal rats, 3 mg/kg oral, time 2 (Fig3a), 3 mg/kg): 5074.332 and 4401.713 and 4372.837
- Plasma concentration of SC-919 ([3]; normal rats, 3 mg/kg oral, time 4 (Fig3a), 3 mg/kg): 5790.125 and 5489.252 and 5879.739
- Plasma concentration of SC-919 ([3]; normal rats, 3 mg/kg oral, time 8 (Fig3a), 3 mg/kg): 6166.814 and 6363.863 and 4651.047
- Plasma concentration of SC-919 ([3]; normal rats, 10 mg/kg oral, time 1 (Fig3a), 10 mg/kg): 11886.470 and 10328.550 and 8429.354
- Plasma concentration of SC-919 ([3]; normal rats, 10 mg/kg oral, time 2 (Fig3a), 10 mg/kg): 13647.120 and 11744.460 and 11378.370
- Plasma concentration of SC-919 ([3]; normal rats, 10 mg/kg oral, time 4 (Fig3a), 10 mg/kg): 14060.780 and 13051.160 and 10832.720
- Plasma concentration of SC-919 ([3]; normal rats, 10 mg/kg oral, time 8 (Fig3a), 10 mg/kg): 14559.520 and 13008.450 and 10214.420
- Plasma concentration of SC-919 ([3]; normal rats, 10 mg/kg oral, time 24 (Fig3a), 10 mg/kg): 14337.480 and 9820.569 and 8024.378
- Plasma SC-919 concentrations ([3]; normal rats, oral administration, in words): increased in a dose-dependent manner
SMILES: O=C(O)c1ccc2c(c1)[C@]1(CC[C@H](Oc3ncc(Cl)cc3Cl)CC1)C(=O)N2 [SC-919]
- Concentration of SC-919 in plasma [1]: 40.468 and 0.000 and 7.073 and 24.376 and 2.454 and 13.910
- Concentration of SC-919 (plasma) [4]: 541.632 and 264.446 and 202.061 and 200.786 and 379.989 and 301.737 and 410.34

SMILES: O=C([O-])[O-].O=C([O-])[O-].O=C([O-])[O-].[La+3].[La+3] [Lanthanum carbonate]
- Cumulative 32P activity in the urine ([5]; 8 h (Fig3g)): 0.04647% and 0.2136% and 1.254% and 0.632% and 0.6628%
- Cumulative 32P activity in the urine ([5]; 24 h (Fig3g)): 0.658% and 2.356% and 3.626% and 2.673% and 3.04%
- Cumulative 32P activity in the urine ([5]; 48 h (Fig3g)): 0.8554% and 3.259% and 4.427% and 3.818% and 3.918%
- Cumulative 32P activity in the urine ([5]; 72 h (Fig3g)): 1.078% and 3.901% and 5.067% and 4.576% and 4.362%
- 32P activity / phosphate excretion in faeces vs vehicle ([6]; in words): increased
- Cumulative 32P activity in the faeces ([6]; 48 h (Fig3f)): 53.2569% and 73.3985% and 64.9027% and 66.783% and 73.7253%
- Cumulative 32P activity in the faeces ([6]; 72 h (Fig3f)): 53.7862% and 74.2778% and 65.7229% and 68.7476% and 74.3353%
